Results reported in ChEMBL document CHEMBL1201862, “PubChem BioAssay data set” (2004).
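All cell lines were grown in 96-well plates and treated with compound for 48 hours. The concentration for 50% growth inhibition is given as GI50.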 The source made the active and inactive calls. Cut-off read from the data, not from the text of the source: active = GI50 up to about 1.1 µM and inactive = higher.

Assays:
Experiment in all cases: NCI tumour cell line growth inhibition, 48 h
[1] = system: 786-0
[2] = system: A549
[3] = system: ACHN
[4] = system: CCRF-CEM
[5] = system: EKVX
[6] = system: HL-60
[7] = system: IGROV-1
[8] = system: MDA-MB-435
[9] = system: NCI-H23
[10] = system: NCI-H460
[11] = system: NCI-H522
[12] = system: OVCAR-5
[13] = system: SF-295
[14] = system: SF-539
[15] = system: SK-MEL-5
[16] = system: SNB-19
[17] = system: U-251
[18] = system: UACC-62
[19] = system: UO-31
[20] = system: MDA-N

| Compound | GI50 [1] | GI50 [2] | GI50 [3] | GI50 [4] | GI50 [5] | GI50 [6] | GI50 [7] | GI50 [8] | GI50 [9] | GI50 [10] | GI50 [11] | GI50 [12] | GI50 [13] | GI50 [14] | GI50 [15] | GI50 [16] | GI50 [17] | GI50 [18] | GI50 [19] | GI50 [20] |
| --- | --- | --- | --- | --- | --- | --- | --- | --- | --- | --- | --- | --- | --- | --- | --- | --- | --- | --- | --- | --- |
| O=C1CCCc2ccc3c(c21)CC1(Cc2cc4c(cc2C1)CCCC4)C3 | 18.1 µM (inactive) | 22 µM (inactive) | 16.1 µM (inactive) | 3.94 µM (inactive) | 21.1 µM (inactive) | 6.05 µM (inactive) | 24.7 µM (inactive) | 19.6 µM (inactive) | 18.2 µM (inactive) | 22.8 µM (inactive) | 17.3 µM (inactive) | 27.4 µM (inactive) | 29.8 µM (inactive) | 20.3 µM (inactive) | 12.6 µM (inactive) | 26.6 µM (inactive) | 20.4 µM (inactive) | 20.3 µM (inactive) | 15.7 µM (inactive) | – |
| Cc1ccc(/N=C/C=C(\Nc2ccc(C)cc2)c2ccc3ccccc3c2)cc1 | 0.757 µM (active) | 2.66 µM (inactive) | 0.671 µM (active) | 0.189 µM (active) | – | 0.34 µM (active) | 0.541 µM (active) | 0.203 µM (active) | 0.585 µM (active) | 0.489 µM (active) | 2.74 µM (inactive) | 1.45 µM (inactive) | 0.497 µM (active) | 1.21 µM (inactive) | 0.482 µM (active) | 1.68 µM (inactive) | 0.738 µM (active) | 0.331 µM (active) | 1.07 µM (active) | – |
| CC1=CP(=O)(OC(C)C)C=C(C)C1=C(Cl)Cl (stereo not given) | > 100 µM (inactive) | 26.4 µM (inactive) | 47.1 µM (inactive) | 54 µM (inactive) | > 100 µM (inactive) | 34.9 µM (inactive) | > 100 µM (inactive) | – | 52.7 µM (inactive) | 68.2 µM (inactive) | 2.52 µM (inactive) | > 100 µM (inactive) | 45.2 µM (inactive) | 84.1 µM (inactive) | 30.8 µM (inactive) | > 100 µM (inactive) | 35.7 µM (inactive) | 32.6 µM (inactive) | 13.1 µM (inactive) | – |
| CC1=Nc2ccccc2SC(c2c(Cl)cccc2Cl)C1 (stereo not given) | 0.454 µM (active) | 1.88 µM (inactive) | 1.71 µM (inactive) | 0.304 µM (active) | 2.12 µM (inactive) | 0.341 µM (active) | 1.77 µM (inactive) | – | 1.32 µM (inactive) | 1.14 µM (inactive) | 1.22 µM (inactive) | 2.39 µM (inactive) | 1.34 µM (inactive) | 0.993 µM (active) | 1.49 µM (inactive) | 1.38 µM (inactive) | 0.345 µM (active) | 1.25 µM (inactive) | 1.71 µM (inactive) | – |
| COc1ccccc1-n1c(C)nc2ccccc2c1=O | > 100 µM (inactive) | > 100 µM (inactive) | > 100 µM (inactive) | > 100 µM (inactive) | > 100 µM (inactive) | > 100 µM (inactive) | > 100 µM (inactive) | – | > 100 µM (inactive) | > 100 µM (inactive) | > 100 µM (inactive) | > 100 µM (inactive) | > 100 µM (inactive) | > 100 µM (inactive) | > 100 µM (inactive) | > 100 µM (inactive) | > 100 µM (inactive) | > 100 µM (inactive) | > 100 µM (inactive) | – |
| Cc1ccc(/C(=C/C=C(C#N)C#N)Sc2cc(Cl)ccc2Cl)cc1 | 1.92 µM (inactive) | 9.98 µM (inactive) | 2.7 µM (inactive) | – | 14 µM (inactive) | – | 8.41 µM (inactive) | 2.43 µM (inactive) | 3.85 µM (inactive) | 4.31 µM (inactive) | 3.55 µM (inactive) | 5.02 µM (inactive) | 3.43 µM (inactive) | 3.18 µM (inactive) | 12.1 µM (inactive) | 5.97 µM (inactive) | 3.21 µM (inactive) | 3.85 µM (inactive) | 8.81 µM (inactive) | – |
| C[Si]1(C)C(c2ccccc2)=CC2C(c3ccccc3)(c3ccccc3)OC21c1ccccc1 (stereo not given) | > 100 µM (inactive) | > 100 µM (inactive) | > 100 µM (inactive) | > 100 µM (inactive) | > 100 µM (inactive) | 28.7 µM (inactive) | > 100 µM (inactive) | – | > 100 µM (inactive) | > 100 µM (inactive) | > 100 µM (inactive) | > 100 µM (inactive) | 66.8 µM (inactive) | > 100 µM (inactive) | 63.7 µM (inactive) | > 100 µM (inactive) | > 100 µM (inactive) | > 100 µM (inactive) | > 100 µM (inactive) | – |
| CC/C(CC(=O)CCC(=O)Nc1ccccc1[N+](=O)[O-])=N/NC(=O)C[n+]1ccccc1 | > 100 µM (inactive) | > 100 µM (inactive) | > 100 µM (inactive) | > 100 µM (inactive) | > 100 µM (inactive) | > 100 µM (inactive) | > 100 µM (inactive) | – | > 100 µM (inactive) | > 100 µM (inactive) | > 100 µM (inactive) | > 100 µM (inactive) | > 100 µM (inactive) | > 100 µM (inactive) | > 100 µM (inactive) | > 100 µM (inactive) | > 100 µM (inactive) | > 100 µM (inactive) | > 100 µM (inactive) | – |
| C=CC/N=C1\N=C(C)C(C(=O)OCC)S1 (stereo not given) | > 100 µM (inactive) | > 100 µM (inactive) | > 100 µM (inactive) | 7.05 µM (inactive) | > 100 µM (inactive) | 7.16 µM (inactive) | > 100 µM (inactive) | – | > 100 µM (inactive) | > 100 µM (inactive) | > 100 µM (inactive) | > 100 µM (inactive) | > 100 µM (inactive) | > 100 µM (inactive) | > 100 µM (inactive) | > 100 µM (inactive) | > 100 µM (inactive) | > 100 µM (inactive) | > 100 µM (inactive) | – |
| Cc1ccc(CC(C)N)cc1 (stereo not given) | > 100 µM (inactive) | > 100 µM (inactive) | > 100 µM (inactive) | > 100 µM (inactive) | > 100 µM (inactive) | > 100 µM (inactive) | > 100 µM (inactive) | – | > 100 µM (inactive) | > 100 µM (inactive) | > 100 µM (inactive) | > 100 µM (inactive) | > 100 µM (inactive) | > 100 µM (inactive) | > 100 µM (inactive) | > 100 µM (inactive) | > 100 µM (inactive) | > 100 µM (inactive) | > 100 µM (inactive) | – |
| COc1cc([C@@H]2c3cc4c(cc3[C@@H](NC(=O)c3cccc(C#N)c3)C3COC(=O)[C@@H]32)OCO4)cc(OC)c1O (stereo not given in full) | 0.703 µM (active) | 0.0178 µM (active) | 0.182 µM (active) | 0.0841 µM (active) | 1.36 µM (inactive) | 0.166 µM (active) | 1.05 µM (active) | – | 0.214 µM (active) | < 0.01 µM (active) | 0.908 µM (active) | 1.1 µM (active) | 0.372 µM (active) | 0.141 µM (active) | 0.815 µM (active) | 0.404 µM (active) | 0.155 µM (active) | 0.308 µM (active) | 5.47 µM (inactive) | – |
| CC(C)N(C(=O)C12CC3CC(CC(C3)C1)C2)C(C)C | > 50 µM (inactive) | > 50 µM (inactive) | > 50 µM (inactive) | > 50 µM (inactive) | > 50 µM (inactive) | > 50 µM (inactive) | > 50 µM (inactive) | – | > 50 µM (inactive) | > 50 µM (inactive) | > 50 µM (inactive) | > 50 µM (inactive) | > 50 µM (inactive) | > 50 µM (inactive) | > 50 µM (inactive) | > 50 µM (inactive) | > 50 µM (inactive) | > 50 µM (inactive) | > 50 µM (inactive) | – |
| NCCCNc1ccc2c(c1)[n+]([O-])c1ccccc1[n+]2[O-] | 29.2 µM (inactive) | 31.5 µM (inactive) | 21 µM (inactive) | 22.4 µM (inactive) | 37.2 µM (inactive) | 19.7 µM (inactive) | 12.7 µM (inactive) | 31.8 µM (inactive) | 35.5 µM (inactive) | 15.7 µM (inactive) | 13.6 µM (inactive) | 28.4 µM (inactive) | 28.8 µM (inactive) | 20.6 µM (inactive) | 15.2 µM (inactive) | 28.3 µM (inactive) | 19.5 µM (inactive) | 17.7 µM (inactive) | 35.3 µM (inactive) | – |
| Cc1ccc(NNc2cc(=O)[nH]c(=O)[nH]2)cc1Cl | 14.6 µM (inactive) | 29 µM (inactive) | 9.42 µM (inactive) | 11.1 µM (inactive) | – | 3.08 µM (inactive) | 13.8 µM (inactive) | – | 16.8 µM (inactive) | 33.2 µM (inactive) | 16.5 µM (inactive) | 73.8 µM (inactive) | 37.5 µM (inactive) | 19.5 µM (inactive) | 73.5 µM (inactive) | 24.4 µM (inactive) | 16.4 µM (inactive) | 18.3 µM (inactive) | 3.25 µM (inactive) | 15.2 µM (inactive) |
| CCOC(=O)c1c(N=C(S)Nc2ccc(Cl)cc2)sc2c1CCN(C)C2 | > 100 µM (inactive) | > 100 µM (inactive) | > 100 µM (inactive) | 26.9 µM (inactive) | > 100 µM (inactive) | 32.9 µM (inactive) | > 100 µM (inactive) | – | > 100 µM (inactive) | 94 µM (inactive) | – | > 100 µM (inactive) | > 100 µM (inactive) | 72.6 µM (inactive) | > 100 µM (inactive) | > 100 µM (inactive) | – | > 100 µM (inactive) | 83 µM (inactive) | > 100 µM (inactive) |
